“Also recorded” adds a separate entry of the source. Where two headings read alike, the source gives them in different places.
Columns and labels:
[1] = molecular target: T1, hBGT1 (Homo sapiens, UniProt P48065); assay: [3H]GABA uptake at hBGT1 transiently expressed in tsA201 cells; format: cell-based; conditions: for inhibition profile (mono-/biphasic) / IC50: 30 nM [3H]GABA, 3 min; for inhibition profile (mono-/biphasic): F test; for Frac: proportion of maximal response due to the more potent phase; for preferred curve fitting: in the presence of 10 μM ATP
T1 construct: expressed in transfected cells; host or cells: tsA201 (transient)
T1 sequence (P48065 1-614): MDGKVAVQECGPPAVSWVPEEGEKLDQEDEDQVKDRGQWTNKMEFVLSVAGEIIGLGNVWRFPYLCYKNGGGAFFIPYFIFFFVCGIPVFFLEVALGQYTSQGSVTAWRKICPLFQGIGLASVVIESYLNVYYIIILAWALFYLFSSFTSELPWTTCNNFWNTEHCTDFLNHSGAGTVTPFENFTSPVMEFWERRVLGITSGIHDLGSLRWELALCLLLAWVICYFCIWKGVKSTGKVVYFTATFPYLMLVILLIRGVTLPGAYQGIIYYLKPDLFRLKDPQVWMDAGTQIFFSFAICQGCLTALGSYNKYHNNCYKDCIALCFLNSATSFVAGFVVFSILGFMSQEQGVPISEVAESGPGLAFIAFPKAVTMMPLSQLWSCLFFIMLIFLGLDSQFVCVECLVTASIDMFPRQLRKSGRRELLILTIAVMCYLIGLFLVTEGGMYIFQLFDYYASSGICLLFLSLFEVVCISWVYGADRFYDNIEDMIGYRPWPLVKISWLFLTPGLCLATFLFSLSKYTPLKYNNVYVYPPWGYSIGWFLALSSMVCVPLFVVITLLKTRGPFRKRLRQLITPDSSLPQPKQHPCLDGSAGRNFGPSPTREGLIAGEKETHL
Description: The tsA201 cell line was used for transient expression while the MDCK II cell line express BGT1 endogenously. Both cell lines were cultured as described. tsA201 cells were transfected with DNA constructs (8 μg per 10 cm dish if not otherwise mentioned) using 40 μL PolyFect transfection reagent according to the manufacturer’s protocol (Qiagen, Venlo, Netherlands). The DNA constructs encoding hBGT1, hGAT1-3 [36], the mutated constructs hBGT1 Q299 and hGAT3 L314Q described previously, and hBGT Y453A were synthesized and sequence validated by Genscript (NJ, USA).
The [^3H]GABA competition uptake assay was performed as previously described. […] Studies related to the inhibition curves with GABA and BPDBA at hBGT1 were obtained both with and without the presence of 10 μM ATP during the [^3H]GABA uptake assay.
All compounds, except BAPTA/AM, were also present at the same concentration during the course of the actual [^3H]GABA uptake assay.
The [^3H]GABA uptake data was normalized to the percentage of total uptake in the individual experiments in the presence of the lowest compound concentration or no compound present. Data presented is the pooled data of at least three independent experiments with three technical replicates. Concentration–response curves (CRCs) were fitted with GraphPad Prism (version 8.2.1, Yosemite, GraphPad Software, San Diego, CA, USA) by non-linear regression to the sigmoidal concentration response model: Y=Bottom+(Top-Bottom)/1+10^LogIC50-X∗nH where Top is the Top plateau, Bottom is the Bottom plateau, X is the logarithm of the concentration of the compound, LogIC50 is the concentration giving a response halfway between Top and Bottom,and nH is the Hill slope.
The best fit for CRCs obtained with the [^3H]GABA uptake assay was identified by the extra-sum-of-squares F test (for convenience referred to as F test).

[2] = tested on: tsA201 cells transiently expressing hBGT1; assay: Fluo-4 Ca2+-assay in tsA201 cells transiently expressing hBGT1; format: cell-based, human; conditions: within the 3 min timeframe; blocked by BAPTA/AM
Description: Emission was recorded for 20 s. before adding the compounds (at 4 × concentrations) to the HBSS-HEPES buffer to determine the baseline. […] Data presented is the pooled data of at least three independent experiments with three technical replicates. Changes in fluorescence units (ΔFU) were determined as the maximum fluorescent signal within the 190 s minus the average of the baseline.

[3] = tested on: 74 different neuroreceptors and ion channels; conditions: adrenergic, GABAergic and dopaminergic receptors included; cited from earlier work
[4] = biphasic fit, tsA201, 8 μg cDNA, read-out: IC50, low affinity component (high IC50)
[5] = read-out: IC50, low affinity component (high IC50), biphasic fit, tsA201, 8 μg cDNA
[6] = monophasic fit (biphasic n.s.), read-out: IC50

Cc1ccsc1C(CCCN(C)[C@@H]1CCCc2onc(O)c21)c1sccc1C [(R)-EF1502, (R)-4-((4,4-bis(3-methylthiophen-2-yl)butyl)(methyl)amino)-4,5,6,7-tetrahydrobenzo[d]isoxazol-3-ol, reference compound]
inhibition profile (mono-/biphasic) [1]: biphasic CRC
nH1 ([1]; Hill slope of first phase, 8 μg cDNA): –0.79
nH2 ([1]; Hill slope of second phase, 8 μg cDNA): –2.35
IC50 [1, 4]: 190 µM
IC50 ([1]; biphasic fit, tsA201, 8 μg cDNA, read-out: pIC50 ± S.E.M., high affinity component (converted)): 2.45 µM
Frac ([1]; 8 μg cDNA): 0.30

NCCCC(=O)O [GABA, γ-Aminobutyric acid]
inhibition profile (mono-/biphasic) [1]: monophasic
preferred curve fitting [1]: monophasic fit

Cc1ccsc1C(=CCCN(C)[C@@H]1CCCC[C@H]1C(=O)O)c1sccc1C [(1R,2R)-4a, (1R,2R)-2-((4,4-bis(3-methylthiophen-2-yl)but-3-en-1-yl)(methyl)amino)cyclohexane-1-carboxylic acid]
IC50 ([1]; pIC50 ± S.E.M., high affinity component, biphasic fit, tsA201, 8 μg cDNA): 3.39 µM
Frac ([1]; 8 μg cDNA): 0.19
IC50 [1, 5]: 566 µM

O=C(NC1CCN(Cc2ccccc2)CC1)c1ccc(Cl)cc1Cl [BPDBA, N-(1-benzyl-4-piperidinyl)-2,4-dichlorobenzamide, reference compound]
inhibition profile (mono-/biphasic) [1]: monophasic; also recorded: did not inhibit hBGT1 in a biphasic manner
preferred curve fitting [1]: monophasic fit
IC50 [1, 6]: 14.8 µM
IC50 ([1]; monophasic fit (biphasic n.s.), read-out: pIC50 ± S.E.M. (converted)): 15.1 µM

Nc1ncnc2c1ncn2[C@@H]1O[C@H](COP(=O)(O)OP(=O)(O)OP(=O)(O)O)[C@@H](O)[C@H]1O [ATP, adenosine 5′-triphosphate, reference compound]
decrease of total [3H]GABA uptake ([1]; ATP present during uptake (10 μM per methods)): 9%
intracellular Ca2+ increase [2]: induced a Ca^2+ increase

COc1ccccc1C1(O)CCN(CCCn2c3ccccc3c3ccccc32)CC1 [NNC 05-2090, 1-[3-(9H-Carbazol-9-yl)propyl]-4-(2-methoxyphenyl)-4-piperidinol, reference compound]
inhibition profile (mono-/biphasic) [1]: did not inhibit hBGT1 in a biphasic manner
IC50 [1, 6]: 117 µM

CN(CCC=C1c2ccccc2CCc2ccccc21)[C@@H]1CCCC[C@@H]1C(=O)O [(1R,2S)-5c, (1S,2R)-2-((3-(10,11-dihydro-5H-dibenzo[a,d][7]annulen-5-ylidene)propyl)(methyl)amino)cyclohexane-1-carboxylic acid]
IC50 ([1]; biphasic fit, tsA201, 8 μg cDNA, read-out: IC50, high affinity component (low IC50)): 11.2 µM
IC50 [1, 4]: 819 µM
Frac ([1]; 8 μg cDNA): 0.26

N-[4,4-bis(3-methyl-2-thienyl)-3-butenyl]-3-hydroxy-4-(methylamino)-4,5,6,7-tetrahydrobenzo[d]isoxazol-3-ol [EF1502]
activity at a broad range of neurotransmitter systems [3]: completely devoid of any activity

Cc1ccsc1C(=CCCN(C)[C@@H]1CCCC[C@@H]1C(=O)O)c1sccc1C [(1S,2R)-5a, (1S,2R)-2-((4,4-bis(3-methylthiophen-2-yl)but-3-en-1-yl)(methyl)amino)cyclohexane-1-carboxylic acid]
IC50 ([1]; IC50, high affinity component (low IC50), biphasic fit, tsA201, 8 μg cDNA): 4.7 µM
Frac ([1]; 8 μg cDNA): 0.28
IC50 [1, 5]: 370 µM

Reference: publication PMC7297817, “Pharmacological Characterization of a Betaine/GABA Transporter 1 (BGT1) Inhibitor Displaying an Unusual Biphasic Inhibition Profile and Anti-seizure Effects” (Neurochemical Research, 2020)
